Earlier results in patent US9326976B2, “Carbamate derivatives” (CHIESI FARMACEUTICI S.P.A., priority 2014, dated 2016).

System: COPD patients
[1] = patients with severe disease, frequent exacerbations and mucus hypersecretion

O=C(Nc1c(Cl)cncc1Cl)c1ccc(OC(F)F)c(OCC2CC2)c1 [roflumilast]
reduction of the numbers of neutrophils in sputum (COPD patients, oral, given over 4 weeks): 36%
improvement of FEV 1 [1]: approximately 50 mL
reduction of exacerbation [1]: about 15%
